Measurements reported in patent publication US20140011706A1, “SURFACE DISPLAY OF PO[…] METAL PORPHYRIN OR A FLAVIN” (Autodisplay Biotech GMBH, priority 2010, published 2014).
Read-outs that look alike come from different tables or passages of the source.

How the values were obtained:
CYP106A2 [1] = target: T1, CYP106A2 (Priestia megaterium, UniProt Q06069); experiment: NADPH consumption of cells displaying CYP106A2 in the presence of imipramine (N-demethylation); assay type: biochemical, E. coli BL21(DE3); set-up: expressed in transfected cells; host or cells: E. coli BL21(DE3) pET-CYP13, induced with 1 mM IPTG; settings: imipramine 2.5 μM, NADPH 200 μM, BL21(DE3) pETCYP13 cells OD578=2.5, Adx and AdR added
Experimental: The cells were prepared as described in Example 1. Redox equivalents are transferred from NADPH via the proteins AdR and Adx to the converting enzyme.
The reaction mixture contained in a total volume of 0.2 mL Hepes buffer (50 mM, 0.05% Tween20, pH 7.4), imipramine (2.5 μM), Adx ([…]), AdR (0.5 μM), NADPH (200 μM) and cells of E. coli BL21(DE3) or BL21(DE3) pETCYP13 corresponding to an OD578=2.5.
The by-product formalin (cf. FIG. 17) has been photometrically identified to be produced by the cells displaying CYP106A2, but not in the control cells (data not shown).

CYP106A2 [2] = target: T1, CYP106A2
[3] = E. coli BL21(DE3) pETCYP13 whole cells, induced with 1 mM IPTG, Adx and AdR added

Structure (SMILES) | conversion indicated by NADPH consumption difference versus control cells (CYP106A2 [1]) | product formation from substrate (HPLC product peak) (CYP106A2 [2]; [3]) | product formation from substrate (HPLC product peak) (CYP106A2 [2]; BL21(DE3) pETCYP13 whole cells, 1 mM IPTG, without addition of Adx) | amount of product 15β-deoxycorticosterone (HPLC) (CYP106A2 [2]; TolC negative strain JW5503-1 (DE3) pETCYP13 compared with TolC positive BL21(DE3) pETCYP13, IPTG induced)
CN(C)CCCN1c2ccccc2CCc2ccccc21 [imipramine] | conversion of imipramine into desipramine | – | – | –
CC(C)C1=CC2=CC[C@@H]3[C@](C)(CCC[C@@]3(C)C(=O)O)[C@H]2CC1 [abietic acid] | – | a product occurred at the expected retention time | – | –
C[C@]12CC[C@H]3[C@@H](CCC4=CC(=O)CC[C@@]43C)[C@@H]1CC[C@@H]2C(=O)CO [11-deoxycorticosterone] | – | resulted in a product peak | no product peak | decreased
